# Values quoted from earlier work as cited in patent US10052352B2, “Therapeutic application of parenteral krill oil” (STABLE SOLUTIONS LLC, priority 2011, dated 2018).
# Conditions: free acid
structure (smiles),measurement,value
O=C(c1ccccc1)c1ccc2n1CCC2C(=O)O (stereo not shown) [ketorolac],water solubility,highly water insoluble
